Assay results reported in ChEMBL document CHEMBL1128950, “Synthesis and structure-activity relationships of 9-substituted acridines as endothelin-A receptor antagonists” (Bioorg Med Chem Lett, 1996).

Experiments:
Type in all cases: cell-based
[1] = molecular target: T1, Endothelin receptor type B (Homo sapiens, UniProt P24530); experiment: Inhibition of binding of [125I]ET1 to cloned human Endothelin B receptor expressed in CHO-K1 cells up to 200 uM; non significant
T1 sequence (P24530 whole entry): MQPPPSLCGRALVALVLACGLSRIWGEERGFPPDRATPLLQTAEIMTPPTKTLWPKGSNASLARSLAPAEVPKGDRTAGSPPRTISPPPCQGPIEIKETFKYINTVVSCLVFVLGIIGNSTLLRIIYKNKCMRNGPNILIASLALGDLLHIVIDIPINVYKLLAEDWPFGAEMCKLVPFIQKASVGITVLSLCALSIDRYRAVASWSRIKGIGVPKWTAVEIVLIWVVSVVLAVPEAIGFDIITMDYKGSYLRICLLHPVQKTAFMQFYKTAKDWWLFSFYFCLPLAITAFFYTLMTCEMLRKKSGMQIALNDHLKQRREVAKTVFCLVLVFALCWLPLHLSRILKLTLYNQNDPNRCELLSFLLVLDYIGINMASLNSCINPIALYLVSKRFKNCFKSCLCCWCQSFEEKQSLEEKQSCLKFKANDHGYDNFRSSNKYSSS

Endothelin-1 receptor = molecular target: T2, Endothelin-1 receptor (Homo sapiens, UniProt P25101); experiment: Inhibition of binding of [125I]ET1 to cloned human Endothelin A receptor expressed in LtK- cells
T2 sequence (P25101 whole entry): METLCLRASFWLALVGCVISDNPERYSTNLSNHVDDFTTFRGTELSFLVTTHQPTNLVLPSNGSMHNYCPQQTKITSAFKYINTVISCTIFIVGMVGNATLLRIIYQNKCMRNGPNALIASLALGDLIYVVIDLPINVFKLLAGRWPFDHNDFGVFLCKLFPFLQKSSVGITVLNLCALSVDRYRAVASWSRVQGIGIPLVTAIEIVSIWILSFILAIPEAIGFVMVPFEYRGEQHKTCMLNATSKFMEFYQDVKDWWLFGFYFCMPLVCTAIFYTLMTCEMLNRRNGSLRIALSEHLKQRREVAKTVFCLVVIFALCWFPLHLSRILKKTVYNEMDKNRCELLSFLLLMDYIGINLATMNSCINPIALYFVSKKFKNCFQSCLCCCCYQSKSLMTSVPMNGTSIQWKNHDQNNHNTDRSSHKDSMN

[2] = molecular target: T1, Endothelin receptor type B; experiment: Compound was tested for inhibition of binding of [125I]ET1 to cloned human Endothelin B receptor expressed in CHO-K1 cells

IC50 [1] | IC50 (Endothelin-1 receptor) [µM] | IC50 [2] [µM] | SMILES
Not Active | > 25 | – | c1ccc2c(Cc3ccc4c(c3)OCO4)c3ccccc3nc2c1
Not Active | 76 | – | COC(=O)C(Cc1c2ccccc2cc2ccccc12)c1ccc2c(c1)OCO2 (centres undefined)
Not Active | > 25 | – | COC(=O)C(c1ccc2c(c1)OCO2)C1c2ccccc2CCc2ccccc21 (centres undefined)
Not Active | > 25 | – | COC(=O)C(c1ccc2c(c1)OCO2)c1c2ccccc2[n+]([O-])c2ccccc12 (centres undefined)
Not Active | – | – | COC(=O)C(Oc1c2ccccc2nc2ccccc12)c1ccc2c(c1)OCO2 (centres undefined)
Not Active | > 25 | – | COC(=O)C(Cc1ccc2c(c1)OCO2)c1c2ccccc2nc2ccccc12 (centres undefined)
Not Active | > 25 | – | COC(=O)C(c1ccc2c(c1)OCO2)c1cc(-c2ccccc2)nc2ccccc12 (centres undefined)
Not Active | – | – | COC(=O)C(c1ccc2c(c1)OCO2)c1c2c(nc3ccccc13)CCCC2 (centres undefined)
Not Active | 61 | – | COC(=O)C(c1ccc2c(c1)OCO2)c1cc(C)nc2ccccc12 (centres undefined)
Not Active | > 25 | – | COC(=O)C(c1ccc2c(c1)OC(C)(C)O2)c1c2ccccc2nc2ccccc12 (centres undefined)
Not Active | > 25 | – | COC(=O)C(c1ccc2c(c1)OCO2)C(c1ccccc1)c1ccccc1 (centres undefined)
Not Active | – | – | CC(C)(C)OC(=O)C(c1ccc2c(c1)OCO2)c1c2ccccc2nc2ccccc12 (centres undefined)
Not Active | 0.9 | – | OCC(c1ccc2c(c1)OCO2)c1c2ccccc2nc2ccccc12 (centres undefined)
Not Active | > 25 | – | COC(=O)C(c1ccc(OC)c(OC)c1)c1c2ccccc2nc2ccccc12 (centres undefined)
Not Active | > 25 | – | COC(=O)C(c1ccc([N+](=O)[O-])cc1)c1c2ccccc2nc2ccccc12 (centres undefined)
Not Active | > 25 | – | COC(=O)C(c1ccc(Cl)cc1)c1c2ccccc2nc2ccccc12 (centres undefined)
Not Active | – | – | NC(=O)C(c1ccc2c(c1)OCO2)c1c2ccccc2nc2ccccc12 (centres undefined)
Not Active | > 25 | – | COC(=O)C(c1ccc2c(c1)OCO2)c1c2ccccc2nc2c(OC)c(OC)ccc12 (centres undefined)
Not Active | > 25 | – | COC(=O)C(c1ccc(OC)cc1)c1c2ccccc2nc2ccccc12 (centres undefined)
Not Active | > 25 | – | CC(C)(C)c1ccc(COC(=O)C(c2ccc3c(c2)OCO3)c2c3ccccc3nc3ccccc23)cc1 (centres undefined)
Not Active | 33 | – | O=C(OCc1ccc2c(c1)OCO2)C(c1ccc2c(c1)OCO2)c1c2ccccc2nc2ccccc12 (centres undefined)
Not Active | > 25 | – | O=C(OCc1ccc(Cl)cc1)C(c1ccc2c(c1)OCO2)c1c2ccccc2nc2ccccc12 (centres undefined)
Not Active | 57 | – | O=C(OCc1ccccc1)C(c1ccc2c(c1)OCO2)c1c2ccccc2nc2ccccc12 (centres undefined)
– | – | > 250 | COC(=O)C(c1ccc2c(c1)OCO2)c1c2ccccc2nc2ccccc12 (centres undefined)
Not Active | – | – | COc1ccc(COC(=O)C(c2ccc3c(c2)OCO3)c2c3ccccc3nc3ccccc23)cc1 (centres undefined)
Not Active | – | – | O=CC(c1ccc2c(c1)OCO2)c1c2ccccc2nc2ccccc12 (centres undefined)
Not Active | > 25 | – | COC(=O)C(c1ccc(Cl)c(Cl)c1)c1c2ccccc2nc2ccccc12 (centres undefined)
Not Active | 37 | – | Cc1cc(C(C(N)=O)c2ccc3c(c2)OCO3)c2ccccc2n1 (centres undefined)
